Measurements as given in BindingDB's records for doi:10.1021/jm00018a028 (University of Nebraska Medical Center, 1995).

Test: Ability to induce shape change (polarization) in human polymorphonuclear leukocytes (PMN)

Compared with `CSCC[C@H](NC(=O)[C@H](CC(=O)O)NC(=O)[C@H](CCCCN)NC(=O)[C@H](Cc1ccccc1)NC(=O)[C@H](CO)NC(=O)[C@@H](N)Cc1ccc(O)cc1)C(=O)N1CCC[C@H]1C(=O)N[C@@H](CC(C)C)C(=O)NCC(=O)N[C@@H](CCCNC(=N)N)C(=O)O`, `CC(C)C[C@H](NC(=O)[C@@H]1CCCN1C(=O)[C@H](C)NC(=O)[C@H](CC(=O)O)NC(=O)[C@H](CCCCN)NC(=O)[C@H](Cc1ccccc1)NC(=O)[C@H](CO)NC(=O)[C@@H](N)Cc1ccc(O)cc1)C(=O)NCC(=O)N[C@@H](CCCNC(=N)N)C(=O)O` is 3.2-fold higher in EC50: 5 µM for the first, 15.8 µM for the second.

Compared with “H-YSFKDMQLGR-OH [Tyr-Ser-Phe-LyS-Asp-Met-Glu-Leu-Gly-Arg]”, H-YSFKGLLLGR-OH is 120-fold lower in EC50: 37 µM for the first, 0.3 µM for the second. The second is the more potent here.

With H-YSFKDMQPGR-OH the EC50 was 22 µM.
